# Measured values taken from patent US10124004B2, “Pyrido[3,4-d]pyrimidine derivative and pharmaceutically acceptable salt thereof” (Teijin Pharma Limited, priority 2015, dated 2018).
# Experiments:
# [1] = target: T1, CDK4/cyclin D3 (Homo sapiens, UniProt P11802); experiment: Human CDK4/cyclin D3 inhibitory activity (QS S Assist CDK4/Cyclin D3_FP Kit, IMAP fluorescence polarization); type: biochemical; settings: Human CDK4/cyclin D3 inhibitory activity; read-out: CDK4 Activity symbol
# T1 construct: purchased Carna Biosciences, Inc. QS S Assist CDK4/Cyclin D3_FP Kit
# Method in brief: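 Percent inhibition, relative to DMSO with and without enzyme, was curve-fitted to give IC50 from polarization (ex 485, em 535 nm). The 45-min room-temperature reaction used 12.5-25 ng/well enzyme, kit ATP/substrate/metal mix, and HEPES pH 7.4 buffer with Tween20 and DTT, followed by 30-min IMAP binding in the dark.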
# [2] = target: T2, CDK2/cyclin A2 (Homo sapiens, UniProt P24941); experiment: Human CDK2/cyclin A2 inhibitory activity (QS S Assist CDK2/Cyclin A2_FP Kit, IMAP fluorescence polarization); type: biochemical; settings: Human CDK2/cyclin A2 inhibitory activity; read-out: CDK2 Activity symbol
# T2 construct: purchased Carna Biosciences, Inc. QS S Assist CDK2/Cyclin A2_FP Kit
# Method in brief: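 Kinase activity read as fluorescence polarization (485/535 nm) after phosphorylated fluorescent substrate binds IMAP reagent (30 min, RT, dark). Enzyme (2.5 ng/well) reacted 60 min at RT with ATP/substrate/metal in HEPES pH 7.4 buffer with Tween 20 and DTT; no-enzyme wells define 0% activity; IC50 by curve fit.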
# T1 sequence (P11802 whole entry): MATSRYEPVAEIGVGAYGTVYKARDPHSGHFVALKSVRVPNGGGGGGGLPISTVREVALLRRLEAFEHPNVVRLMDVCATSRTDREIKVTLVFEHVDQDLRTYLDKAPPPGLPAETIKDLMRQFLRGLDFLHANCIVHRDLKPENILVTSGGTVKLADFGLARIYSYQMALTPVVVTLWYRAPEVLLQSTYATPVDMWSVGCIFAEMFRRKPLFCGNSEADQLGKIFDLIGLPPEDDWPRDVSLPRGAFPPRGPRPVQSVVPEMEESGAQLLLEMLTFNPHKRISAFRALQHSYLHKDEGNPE
# T1 sequence (P30281 whole entry partner): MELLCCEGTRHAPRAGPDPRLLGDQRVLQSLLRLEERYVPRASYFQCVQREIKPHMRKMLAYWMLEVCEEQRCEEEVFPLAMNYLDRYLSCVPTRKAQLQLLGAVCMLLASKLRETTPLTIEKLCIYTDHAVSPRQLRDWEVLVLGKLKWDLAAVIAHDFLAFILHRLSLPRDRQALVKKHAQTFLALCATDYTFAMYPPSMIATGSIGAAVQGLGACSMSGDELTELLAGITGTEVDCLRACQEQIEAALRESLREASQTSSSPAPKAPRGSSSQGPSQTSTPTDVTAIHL
SMILES,IC50 [1],IC50 [2]
CO[C@H](C)c1cc2cnc(Nc3ccc(CN4CCn5ccnc5C4)cn3)nc2c(NC(C)C)n1 [Compound 275],10 to 100 nM,≥ 100 nM
CO[C@H](C)c1cc2cnc(Nc3ccc(CN4CCc5nc(C)[nH]c5C4)cn3)nc2c(NC(C)C)n1 [Compound 277],≥ 100 nM,≥ 100 nM
CO[C@H](C)c1cc2cnc(Nc3ccc(CN4CCOCC4(C)C)cn3)nc2c(NC(C)C)n1 [Compound 279],10 to 100 nM,≥ 100 nM
CO[C@H](C)c1cc2cnc(Nc3ccc(CN4[C@@H](C)COC[C@@H]4C)cn3)nc2c(NC(C)C)n1 [Compound 280],≥ 100 nM,≥ 100 nM
CO[C@H](C)c1cc2cnc(Nc3ccc(CN4CCN(CC(F)F)CC4)cn3)nc2c(NC(C)C)n1 [Compound 281],10 to 100 nM,≥ 100 nM
CO[C@H](C)c1cc2cnc(Nc3ccc(OCCN4CCCC4)cn3)nc2c(NC(C)C)n1 [Compound 287],< 10 nM,≥ 100 nM
CNCCOc1ccc(Nc2ncc3cc([C@@H](C)OC)nc(NC(C)C)c3n2)nc1 [Compound 288],< 10 nM,≥ 100 nM
CO[C@H](C)c1cc2cnc(Nc3ccc(OC4CCNCC4)cn3)nc2c(NC(C)C)n1 [Compound 289],< 10 nM,≥ 100 nM
CO[C@H](C)c1cc2cnc(Nc3ccc(OC4CCNC4)cn3)nc2c(NC(C)C)n1 (some centres unmarked) [Compound 290],< 10 nM,≥ 100 nM
CO[C@H](C)c1cc2cnc(Nc3ccc(CN4CCNCC4)cn3)nc2c(NC2CCOCC2)n1 [Compound 291],< 10 nM,≥ 100 nM
COCC(C)(C)Nc1nc([C@@H](C)O)cc2cnc(Nc3ccc(CN4CC[C@@H](F)C4)cn3)nc12 [Compound 292],10 to 100 nM,≥ 100 nM
COCC(C)(C)Nc1nc([C@@H](C)O)cc2cnc(Nc3ccc(CN4CCCOCC4)cn3)nc12 [Compound 293],< 10 nM,≥ 100 nM
COCC(C)(C)Nc1nc([C@@H](C)O)cc2cnc(Nc3ccc(CN4CCC(OC)CC4)cn3)nc12 [Compound 294],< 10 nM,≥ 100 nM
COCC(C)(C)Nc1nc([C@@H](C)O)cc2cnc(Nc3ccc(CN4CCn5ccnc5C4)cn3)nc12 [Compound 295],10 to 100 nM,≥ 100 nM
COCC(C)(C)Nc1nc([C@@H](C)O)cc2cnc(Nc3ccc(CN4CCc5nc(C)[nH]c5C4)cn3)nc12 [Compound 296],≥ 100 nM,≥ 100 nM
CNC(=O)C1CCN(Cc2ccc(Nc3ncc4cc([C@@H](C)O)nc(NC(C)(C)COC)c4n3)nc2)CC1 [Compound 297],< 10 nM,≥ 100 nM
COCC(C)(C)Nc1nc([C@@H](C)O)cc2cnc(Nc3ccc(CN4CCOCC4(C)C)cn3)nc12 [Compound 298],10 to 100 nM,≥ 100 nM

# More lines, now with the values ahead:
IC50 [1],IC50 [2],SMILES
< 10 nM,≥ 100 nM,COC1CCN(Cc2ccc(Nc3ncc4cc([C@@H](C)OC)nc(NC(C)C)c4n3)nc2)CC1 [Compound 274]
< 10 nM,≥ 100 nM,CO[C@H](C)c1cc2cnc(Nc3ccc(CN4CCN(CCF)CC4)cn3)nc2c(NC(C)C)n1 [Compound 276]
< 10 nM,≥ 100 nM,CNC(=O)C1CCN(Cc2ccc(Nc3ncc4cc([C@@H](C)OC)nc(NC(C)C)c4n3)nc2)CC1 [Compound 278]
< 10 nM,≥ 100 nM,CO[C@H](C)c1cc2cnc(Nc3ccc(OCCN4CCOCC4)cn3)nc2c(NC(C)C)n1 [Compound 282]
< 10 nM,≥ 100 nM,CO[C@H](C)c1cc2cnc(Nc3ccc(OCCCN(C)C)cn3)nc2c(NC(C)C)n1 [Compound 283]
< 10 nM,≥ 100 nM,C[C@@H](O)c1cc2cnc(Nc3ccc(N4CCNCC4)nn3)nc2c(NCC2CCOC2)n1 (some centres unmarked) [Compound 284]
< 10 nM,≥ 100 nM,CO[C@H](C)c1cc2cnc(Nc3ccc(N4CCNCC4)nn3)nc2c(NC2CCOCC2)n1 [Compound 285]
< 10 nM,≥ 100 nM,CO[C@H](C)c1cc2cnc(Nc3ccc(N4CCCC(O)C4)nn3)nc2c(NC(C)C)n1 (some centres unmarked) [Compound 286]
